Results taken from patent US10767186B2, “Organic compounds” (Novartis AG, priority 2007, dated 2020).

Key:
[1] = target: FRα (FR alpha) and FRβ (FR beta); conditions: cited from earlier work; for Kd: FRα and FRβ
[2] = target: T1, reduced folate carrier (RFC) (Homo sapiens, UniProt P41440); conditions: cited from earlier work
T1 sequence (P41440 1-591): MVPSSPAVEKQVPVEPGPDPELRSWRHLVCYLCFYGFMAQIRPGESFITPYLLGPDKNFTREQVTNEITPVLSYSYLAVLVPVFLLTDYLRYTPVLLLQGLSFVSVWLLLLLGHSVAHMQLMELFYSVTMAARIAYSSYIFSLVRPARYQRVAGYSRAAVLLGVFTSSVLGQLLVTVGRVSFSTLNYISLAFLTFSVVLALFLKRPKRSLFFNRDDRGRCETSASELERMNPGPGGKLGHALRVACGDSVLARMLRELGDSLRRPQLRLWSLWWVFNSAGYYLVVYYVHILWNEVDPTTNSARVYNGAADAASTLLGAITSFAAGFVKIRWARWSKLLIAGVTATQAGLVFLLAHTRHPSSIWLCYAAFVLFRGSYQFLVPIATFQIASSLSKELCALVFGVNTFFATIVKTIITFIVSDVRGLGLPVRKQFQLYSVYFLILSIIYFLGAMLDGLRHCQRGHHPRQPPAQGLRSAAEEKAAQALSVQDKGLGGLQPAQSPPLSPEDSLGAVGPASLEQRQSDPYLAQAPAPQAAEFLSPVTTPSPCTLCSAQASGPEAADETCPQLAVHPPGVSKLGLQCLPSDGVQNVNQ

[3] = system: RFC-deficient C15 cells; assay: Antibody production of test vector clones at low folic acid (ELISA); assay type: cell-based, Chinese hamster
Experimental: The cells are lacking RFC transporter activity, as disclosed elsewhere (Assaraf, Y. G. and Schimke, R. T. (1987) Proc. Natl. Acad. Sci. USA 84, 7154-7158; Rothem, L., et al., Mol. Pharmacol. 68: 616-624).
RFC-deficient C15 cells are transfected with the test vector by electroporation. […] Cells are diluted to a final density of 5 cells/ml and seeded at 100 μl/well in 96-well plates (i.e. 0.5 cells/well). […] The co-selection utilizing the folate system of the present invention together with an additional selection system (i.e. neo/G418) is applied to provide optimal performance of the selection process. […] This is corroborated by further analysis of antibody expression in the various clones.
The analysis of antibody production is performed in principle as outlined in Example 1.4 above. The concentration of the secreted antibody is monitored using an ELISA assay as follows: Maxisorp microplates are coated with an anti-human IgG. Following blocking with a buffer containing bovine serum albumin (BSA) and several washes, multiple dilutions of the secreted antibody samples are added. Then, a peroxidase-conjugated second antibody consisting of goat anti-human IgG-peroxidase is added. Finally, a colorimetric peroxidase substrate is added following which the resultant dye concentration is determined in each well spectrophotometrically and then compared to standard concentrations of known IgG concentrations.

[4] = system: CHO-K1 cell line; assay: Folic acid starvation experiment, cell survival; assay type: cell-based, Chinese hamster
Experimental: Cells are cultivated in such medium and cell viability is analyzed to quantify the percentage of surviving cells.

CN(Cc1cnc2nc(N)nc(N)c2n1)c1ccc(C(=O)N[C@@H](CCC(=O)O)C(=O)O)cc1 [MTX, 4-amino-10-methylfolic acid]
Kd [1]: > 100 nM

Nc1nc2c(c(=O)[nH]1)CC(CCc1ccc(C(=O)N[C@@H](CCC(=O)O)C(=O)O)cc1)CN2 (some centres unmarked) [DDATHF, 5,10-dideazatetrahydrofolic acid]
Ki ([1]; using [3H]folic acid as a substrate): 0.4 to 1.3 nM

C#CCN(c1ccc(C(=O)N[C@@H](CCC(=O)N[C@H](CCC(=O)O)C(=O)O)C(=O)O)cc1)[C@H]1CCc2cc3nc(CO)[nH]c(=O)c3cc21 [BGC945]
Kd [1]: 1 nM

Nc1nc2c(c(=O)[nH]1)N(C=O)C(CNc1ccc(C(=O)N[C@@H](CCC(=O)O)C(=O)O)cc1)CN2 (some centres unmarked) [leucovorin, 5-formyl-THF]
Kt (transport affinity) [2]: 1 µM

Nc1nc2ncc(CNc3ccc(C(=O)N[C@@H](CCC(=O)O)C(=O)O)cc3)nc2c(=O)[nH]1 [folic acid]
CmAb: concentration of the secreted antibody in the medium ([3]; folic acid 60 pM in the medium): 216 ± 30 µg/L
CmAb: concentration of the secreted antibody in the medium ([3]; folic acid 600 pM in the medium): 138 ± 15 µg/L
CmAb: concentration of the secreted antibody in the medium ([3]; folic acid 1200 pM in the medium): 19 ± 8 µg/L
Precentage of Survival ([4]; FA concentration 0.1 nM): 2.08
Precentage of Survival ([4]; FA concentration 1 nM): 2.45
Precentage of Survival ([4]; FA concentration 3 nM): 2
Precentage of Survival ([4]; FA concentration 10 nM): 2.7
Precentage of Survival ([4]; FA concentration 30 nM): 6.8
Precentage of Survival ([4]; FA concentration 100 nM): 55.5
Precentage of Survival ([4]; FA concentration 300 nM): 88.6
Precentage of Survival ([4]; FA concentration 1000 nM): 100.8
Precentage of Survival ([4]; FA concentration 2300 nM): 100
Kt (transport affinity) [2]: 200 to 400 µM
